# In article PMC10945559, “Forgotten Natural Products: Semisynthetic Development of Blasticidin S As an Antibiotic Lead” (ACS Medicinal Chemistry Letters, 2024):
# Where two headings read alike, the source gives them in different places.
# Columns and labels:
# [1] = system: Acinetobacter baumannii ATCC 17978; assay: Broth microdilution antibacterial assay; assay type: cell-based; details: for IC50 / MIC: Acinetobacter baumannii, ATCC17978, A. baumannii; for IC50: average of two biological replicates ± S.D., read-out: IC50; for MIC: lowest concentration inhibiting >90% of growth, range from biological replicates, read-out: MIC; for Selectivity index (CC50/IC50): MRC-5 CC50 / A. baumannii IC50
# Experimental: (§1) Antibacterial Assay Procedure
# (§2) Broth Microdilution Assays
# (§3) Media and solutions were autoclaved or sterile filtered prior to use and manipulations were carried out in a laminar flow hood. Antibacterial testing was performed in polypropylene 96 -well flat bottom plates. The minimal inhibitory concentration of blasticidin S ( 1) hydrochloride, P10 (2), and derivatives 15–22 were assessed against Staphylococcus aureus ΔNorA, S. aureus 8810, methicillin-resistant S. aureus (MRSA) ATCC 43300, Enterococcus faecalis ATCC 29212, vancomycin-resistant Enterococcus, Klebsiella pneumoniae ATCC 29665, Pseudomonas aeruginosa, and Acinetobacter baumannii ATCC 17978 using serial dilutions. Doxycycline (Gold Bio) as a positive control and the vehicle as a negative control. Stock solutions of each compound were prepared at 5.12 mg/mL in 50% DMSO/water and serially diluted in 50% DMSO/water to create master plates. From the master plates, 10 μL of each dilution was applied to test plates using a Bravo automated liquid transfer system (Agilent). Bacteria previously grown overnight (37 °C, 120 – 200 RPM), in LB broth were diluted to an OD600 of 0.0 5 in cation-adjusted Mueller-Hinton broth, grown to an OD600 of ~0.5, and diluted to an OD600 of 0.004 in cation-adjusted Mueller-Hinton broth. These diluted cultures were applied to the test plates (190 μL per test well) resulting in final concentrations of the test compounds of 256–2 μg/mL. Growth controls (wells with inoculated media but no vehicle or test compounds) were included to assess any potential toxicity from the vehicle. The plates were incubated at 37 °C for 16–18 h, except for VRE and E. faecalis, which were incubated at 37 °C for 24 h. Inhibition was determined by measuring the optical density at 600 nm (OD600) with a Cytation 3 plate reader (BioTek). The optical density measurements were normalized to the positive and negative controls and the vehicle and growth controls were compared and found to be indistinguishable, indicating no toxicity from the vehicle used. The MIC was the lowest concentration that inhibited >90% of growth. Two biological replicates were performed in duplicate. MIC values are reported […]
# (§4) as a range from biological replicates. Inhibition curves were generated using Prism (GraphPad).
# (§5) The IC50 values reported in Table 2 are the average of the two biological replicates ± standard […]
# (§6) Cytotoxicity Assay Procedure
# (§7) Human lung fibroblast cells, MRC -5 (CCL-171), were cultured at 37℃ with 5% CO2 and were plated at 5000 cells/well in a 96 -well plate. Compounds 1, 2, and 15-22 were initially prepared at concentrations of 5.12 mg/mL in a vehicle of 50% DMSO. Dilutions of the compounds (4 – 512 μg/mL) were then prepared in growth medium containing Dulbecco’s modified Eagle’s medium (DMEM) with high glucose, L -glutamine, and sodium pyruvate supplemented with 10% fetal bovine serum (FBS), 1% non -essential amino acids, and 0.1% gentamicin sulfate, and 25mM HEPES. The vehicle (50% DMSO) was also prepared via the sa me dilution series to serve as a control. Growth media was removed from the cells and replaced with the same volume of each compound dilution. Cells were incubated for 24 h , after which CellTiter 96® AQueous One Solution Reagent was added to each well as recommended by the manufacturer’s protocol (Promega CellTiter 96 AQueous One Solution Cell Proliferation Assay) and further incubated for 4 h. After incubation, absorbance was measured at 490 nm on an Infinite M plex multimode microplate reader with i -control Tecan software. Viability was calculated by subtracting media only absorbance values and normalizing to the vehicle control at each concentration. The presented data is one assay performed in triplicate that is representative of multiple trials. Data for the 256 and 512 μg/mL concentrations were removed from analysis due to vehicle toxicity […]
# (§8) CC50 concentrations were determined via the ED50 Plus v1.0 software (https://archive.org/details/ed50v10_zip).
# Pseudomonas aeruginosa = assay: Broth microdilution antibacterial assay; assay type: cell-based; details: for Selectivity index (CC50/IC50): MRC-5 CC50 / P. aeruginosa IC50; for IC50 / MIC: Pseudomonas aeruginosa, P. aeruginosa; for IC50: average of two biological replicates ± S.D., read-out: IC50; for MIC: lowest concentration inhibiting >90% of growth, range from biological replicates, read-out: MIC
# Experimental: as §1, §2, §3, §4, §5, §6, §7, §8
# [2] = system: vancomycin-resistant Enterococcus (VRE); assay: Broth microdilution antibacterial assay; assay type: cell-based; details: for MIC / IC50: Enterococcus; for IC50: average of two biological replicates ± S.D., read-out: IC50; for Selectivity index (CC50/IC50): MRC-5 CC50 / VRE IC50
# Experimental: as §1, §2, §3, §4, §5, §6, §7, §8
# [3] = system: Staphylococcus aureus ΔNorA; assay: Broth microdilution antibacterial assay; assay type: cell-based; details: for Selectivity index (CC50/IC50): MRC-5 CC50 / S. aureus ΔNorA IC50; for IC50 / MIC: Staphylococcus aureus
# Experimental: as §1, §2, §3, §4, §5, §6, §7, §8
# [4] = system: Enterococcus faecalis ATCC 29212; assay: Broth microdilution antibacterial assay; assay type: cell-based; details: for MIC / IC50: Enterococcus faecalis, ATCC29212; for IC50: average of two biological replicates ± S.D. (18: one biological replicate), read-out: IC50; for Selectivity index (CC50/IC50): MRC-5 CC50 / E. faecalis IC50
# Experimental: as §1, §2, §3, §4, §5, §6, §7, §8
# [5] = system: Klebsiella pneumoniae ATCC 29665; assay: Broth microdilution antibacterial assay; assay type: cell-based; details: for IC50 / MIC: Klebsiella pneumoniae, ATCC29665, K. pneumoniae; for IC50: average of two biological replicates ± S.D., read-out: IC50; for MIC: lowest concentration inhibiting >90% of growth, range from biological replicates, read-out: MIC; for Selectivity index (CC50/IC50): MRC-5 CC50 / K. pneumoniae IC50
# Experimental: as §1, §2, §3, §4, §5, §6, §7, §8
# in vitro = assay type: cell-based, human; details: human; MRC-5 (lung fibroblast); 24 h; one biological replicate (n = 3); read-out: CC50 for human cells
# Experimental: as §4, §5, §6, §7, §8
# Figure S41. The effect of compounds on cell viability. The lines represent non -linear regression curves, and error bars represent means ± […]
# SD (n=3). […]
# S. aureus 8810 = assay: Broth microdilution antibacterial assay; assay type: cell-based, Staphylococcus aureus; details: for Selectivity index (CC50/IC50): MRC-5 CC50 / S. aureus IC50; for IC50 / MIC: Staphylococcus aureus, 8810; for IC50: average of two biological replicates ± S.D., read-out: IC50
# Experimental: as §1, §2, §3, §4, §5, §6, §7, §8
# [6] = system: methicillin-resistant S. aureus (MRSA) ATCC 43300; assay: Broth microdilution antibacterial assay; assay type: cell-based, Staphylococcus aureus; details: for Selectivity index (CC50/IC50): MRC-5 CC50 / MRSA IC50; for IC50 / MIC: Staphylococcus aureus; for IC50: average of two biological replicates ± S.D., read-out: IC50
# Experimental: as §1, §2, §3, §4, §5, §6, §7, §8
# [7] = VRE, average MIC, Table S3, read-out: Average Activity against VRE
# [8] = VRE, 24 h, lowest concentration inhibiting >90% of growth, range from biological replicates, read-out: MIC
# [9] = E. faecalis, 24 h, lowest concentration inhibiting >90% of growth, range from biological replicates, read-out: MIC
# [10] = average MIC, Table S3, read-out: Average Activity against E. faecalis
# [11] = S. aureus, lowest concentration inhibiting >90% of growth, range from biological replicates, read-out: MIC
# [12] = average MIC, Table S3, read-out: Average Activity against S. aureus
# [13] = MRSA, lowest concentration inhibiting >90% of growth, range from biological replicates, read-out: MIC
# [14] = average MIC, Table S3, read-out: Average Activity against MRSA
SMILES,IC50 [1],MIC [1],Selectivity index (CC50/IC50) [1],Selectivity index (CC50/IC50) (Pseudomonas aeruginosa),IC50 (Pseudomonas aeruginosa),MIC (Pseudomonas aeruginosa),"MIC [2, 7]","MIC [2, 8]",IC50 ([2]; VRE),Selectivity index (CC50/IC50) [2],Selectivity index (CC50/IC50) [3],IC50 [3],MIC [3],"MIC [4, 9]",IC50 ([4]; E. faecalis),"MIC [4, 10]",Selectivity index (CC50/IC50) [4],IC50 [5],MIC [5],Selectivity index (CC50/IC50) [5],further results
C#CCCNC(=O)[C@H]1O[C@@H](n2ccc(N)nc2=O)C=C[C@@H]1NC(=O)C[C@@H](N)CCN(C)C(=N)N [Compound 20],24.3 ± 3.2 µg/mL,128 µg/mL,2.7,3.3,20.2 ± 1.3 µg/mL,64 µg/mL,64 µg/mL,64 µg/mL,22.1 ± 12 µg/mL,3.0,4.3,15.2 ± 2.1 µg/mL,64 µg/mL,16 to 32 µg/mL,11.1 ± 4.1 µg/mL,16 µg/mL,5.9,30.7 ± 5.3 µg/mL,128 µg/mL,2.2,"CC50 at 24 h (in vitro): 65.9 µg/mL; Selectivity index (CC50/IC50) (S. aureus 8810): 26; IC50 (S. aureus 8810; S. aureus): 2.5 ± 0.2 µg/mL; MIC (S. aureus 8810; [11]): 16 µg/mL; MIC (S. aureus 8810; [12]): 16 µg/mL; Selectivity index (CC50/IC50) [6]: 9.1; IC50 ([6]; MRSA): 7.2 ± 2.3 µg/mL; MIC [6, 13]: 32 µg/mL; MIC [6, 14]: 32 µg/mL"
CN(CC[C@H](N)CC(=O)N[C@H]1C=C[C@H](n2ccc(N)nc2=O)O[C@@H]1C(=O)NCCO)C(=N)N [Compound 21],21.2 ± 0.6 µg/mL,64 to 128 µg/mL,2.7,1.7,34.1 ± 0.3 µg/mL,128 µg/mL,128 µg/mL,128 µg/mL,15.3 ± 3.3 µg/mL,3.8,1.6,35.5 ± 2.5 µg/mL,256 µg/mL,32 µg/mL,22.3 ± 4 µg/mL,32 µg/mL,2.6,19.7 ± 0.5 µg/mL,64 µg/mL,3.0,"CC50 at 24 h (in vitro): 58.1 µg/mL; Selectivity index (CC50/IC50) (S. aureus 8810): 7.1; IC50 (S. aureus 8810; S. aureus): 8.1 ± 0.7 µg/mL; MIC (S. aureus 8810; [11]): 64 µg/mL; MIC (S. aureus 8810; [12]): 64 µg/mL; Selectivity index (CC50/IC50) [6]: 4.9; IC50 ([6]; MRSA): 11.8 ± 0.2 µg/mL; MIC [6, 13]: 32 to 64 µg/mL; MIC [6, 14]: 48 µg/mL"
CN(CC[C@H](N)CC(=O)N[C@H]1C=C[C@H](n2ccc(N)nc2=O)O[C@@H]1C(=O)NCCc1ccccc1)C(=N)N [Compound 22],183 ± 19 µg/mL,> 256 µg/mL,0.3,3.5,16.5 ± 2.1 µg/mL,64 µg/mL,32 µg/mL,32 µg/mL,11.1 ± 0.8 µg/mL,5.2,3.0,19.3 ± 0.2 µg/mL,128 µg/mL,8 µg/mL,6.1 ± 2.6 µg/mL,8 µg/mL,9.6,36.9 ± 4.7 µg/mL,256 µg/mL,1.6,"increase in potency compared to 1 ([2]; VRE, MIC): 8 fold; CC50 at 24 h (in vitro): 58.4 µg/mL; Selectivity index (CC50/IC50) (S. aureus 8810): 15; better activity than the phenethyl ester of the previous study (S. aureus 8810; S. aureus, ester data ref 8): 4- to 8 fold; IC50 (S. aureus 8810; S. aureus): 3.8 ± 0.2 µg/mL; MIC (S. aureus 8810; [11]): 16 µg/mL; MIC (S. aureus 8810; [12]): 12 µg/mL; Selectivity index (CC50/IC50) [6]: 15; increase in potency compared to 1 ([6]; MRSA, MIC): 16 to 32 fold; better activity than the phenethyl ester of the previous study ([6]; MRSA, ester data ref 8): 4- to 8 fold; IC50 ([6]; MRSA): 4 ± 0.3 µg/mL; MIC [6, 13]: 8 to 16 µg/mL; MIC [6, 14]: 12 µg/mL"
